Measurements as given in US8420777B2, “Compounds that inhibit Hsp90 protein-protein interactions with IAP proteins” (University of Massachusetts, priority 2004, dated 2013).
Ends that are not written are not given here. Peptide text beside a SMILES is read from it. * marks the point of attachment. Cbz = O=C(OCc1ccccc1)*; CH2F = FC*

Columns and labels:
[1] = test system: HeLa cells; experiment: Apoptosis by hypodiploid DNA content, propidium iodide flow cytometry; assay type: cell-based, Human; conditions: 24 hours
Experimental: For determination of apoptosis by hypodiploid DNA content, various tumor cell lines were incubated with increasing concentrations of the cell permeable control scrambled (SEQ ID NO:25) or Survivin peptide (SEQ ID NO:19), harvested after 24 hours (floaters plus attached cells) fixed in 70% ethanol, and stained with 10 μg/ml propidium iodide plus 100 μg/ml RNAse A and 0.05% Triton™ X-100 in PBS, pH 7.4. Cultures were analyzed for DNA content by flow cytometry. For colorimetric quantification of cell viability, an MTT assay was used. Various tumor cell lines were incubated with increasing concentrations of the cell permeable retro-inverso control scrambled P4 or the Survivin-specific P3 peptide, incubated for 24 hours at 37° C. washed twice with Bruffs Media, and 4,5-dimethylthiazol-2-yl)-2,5-diphenyltetrazolium bromide (MTT) (Sigma, St. Louis, Mo.) was added at 5 mg/ml. Decrease in cell viability was analyzed for loss of colorimetric absorption at OD405.
HeLa cells were incubated with the indicated increasing concentrations of the cell permeable Control (scrambled) or Survivin peptide, harvested after 24 hours at 37° C., and analyzed by hypodiploid DNA content by propidium iodide staining and flow cytometry.
HeLa cells were incubated with chemotherapeutic drugs Taxol™ (10 μM) or adriamycin (300 nM), or cell permeable control peptide or the Survivin peptide, harvested after 24 hours, and analyzed for induction of apoptosis by hypodiploid DNA content by flow cytometry.

[2] = test system: HeLa cells; experiment: Proteasome or caspase inhibitor effect on GA-mediated Survivin/XIAP degradation, Western blotting; assay type: cell-based, Human; conditions: for reversal of loss of XIAP expression caused by GA: HeLa cell extracts, GA with inhibitor
Experimental: Extracts from HeLa cells treated with 1 μM GA for 30 hours in the presence or absence of 5 μM of the proteasome inhibitor lactacystin were analyzed for changes in Survivin or β-actin levels by Western blotting. Antibodies to actin were obtained from Sigma. […] Levels of β-actin were unaffected by treatment in this experiment.
HeLa cell extracts were collected after exposure to the indicated concentrations of GA in the absence (None) or in the presence of the proteasome inhibitor, lactacystin or the broad spectrum caspase inhibitor, ZVAD-fink. Loss of XIAP expression in the presence of Hsp90 inhibition by GA is reversed by lactacystin but not ZVAD-fink, as indicated by Western blotting for XIAP depicted in FIG. 5C (* indicates non-specific band).

[3] = molecular target: T1, Hsp90 (Homo sapiens, UniProt P07900); experiment: Surface plasmon resonance of immobilized biotin peptides with r-Hsp90; assay type: binding
T1 construct: GST-Hsp90 (amino acids 1-732); GST (N); made in house; host or cells: E. coli
Experimental: Wild type Survivin peptide 77 to 91 (SEQ ID NO:22) or the corresponding C84A mutant 77-91 peptide (HKKHSSGAAFLSVKK; SEQ ID NO:23) was synthesized with an N-terminal biotin and immobilized on streptavidin coated chips (SA5) purchased from Biacore Inc. (Piscataway, N.J.). Increasing concentrations (100 nM-10 μM) of purified r-Hsp90 suspended in 10 mM HEPES, 150 mM NaCl, 3 mM EDTA, 0.005% polysorbate-20, 1 mM DTT, were then injected in […] over the immobilized peptides. A constant flow rate of […] was maintained, and the dissociation phase was followed for 300 seconds. Surfaces were regenerated using […] of 1 M NaCl/50 mM NaOH after each dissociation phase. A new injection cycle was initiated only after 10 min post-regeneration to ensure complete removal of NaCl and NaOH. The collected data were analyzed using the Biaeval 3.0 software package from Biacore Inc.
Sensorgrams (FIG. 10B) indicate binding of the Survivin peptides to Hsp90, measured by an increase in surface plasmon resonance during analyte flow over the chip surface, with the nonspecific signal from the biotin-only surface subtracted.

[4] = molecular target: T2, Hsp90-Survivin binding interactions (Homo sapiens, UniProt P07900, S63T); experiment: ELISA: Survivin peptides inhibiting Hsp90 binding to immobilized Survivin; conditions: 20 μg/ml peptide preincubated with Hsp90, 16 hours, 4° C.
T2 construct: GST-Hsp90 (amino acids 1-732); GST (N); made in house; host or cells: E. coli
Experimental: ELISA experiments were performed by immobilizing recombinant Survivin (r-Survivin) ([…]) or recombinant Hsp90 (r-Hsp90) (10 μg/ml) on plastic microtiter wells (Immulon™-2, Dynatech Laboratories, Chantilly, Va.) using bicarbonate buffer, pH 9.5 (100 μl/well) for 18 hours at 4° C. Bound protein was blocked with 3% gelatin for 1 hour at 37° C., rinsed with washing buffer (TBS pH 7.4, 0.1% Tween™, 0.1% BSA) and incubated for 1 hour at 37° C. with different concentrations of a test protein to determine if the test protein bound the immobilized protein.
ELISA experiments were performed essentially as in Example 2 with the following variations. 20 μg/ml of each recombinant Survivin peptide (expressed in E. coli) was preincubated with Hsp90 at 2.5 mg/ml for 16 hours at 4° C. After binding and blocking of full length Survivin to wells in a microtiter plate, the preincubated mixtures of Hsp90 and Survivin peptides were added to the wells and incubated for 1 hour at 37° C. Wells were washed, incubated with primary antibody, washed again, and bound antibody was quantified as described above. Each experiment was repeated three times and the standard deviation is shown.

[5] = molecular target: T3, recombinant Hsp90 (Homo sapiens, UniProt P07900, S63T); experiment: ELISA binding to recombinant Hsp90
T3 construct: GST-Hsp90 (amino acids 1-732); GST (N); made in house; host or cells: E. coli
From the text: (§1) FIG. 31 is a graph depicting Hsp90 binding by Survivin peptides, measured by ELISA. Data are the mean±S.D. of two independent experiments.

[6] = test system: U937, K562, HL60, THP1 AML cell lines; experiment: MTT cell viability in AML cell lines; assay type: cell-based, human
Experimental: FIG. 30 is a graph depicting killing activity of survivin K79-G83 in AML cells. The indicated human AML cell lines (U937, K562, HL60, and THP1) were incubated with scrambled (SEQ ID NO:28) or Survivin (SEQ ID NO:20) peptides and evaluated for cell viability by MTT.
The effect of the K79-G83 Survivin peptide was characterized in more detail for anti-tumor activity in AML. The K79-L87 (SEQ ID NO:19) and K79-G83 peptides (SEQ ID NO:20) were incubated with AML cells, and cell viability was measured using MTT.

[7] = test system: HL-60 and THP-1 AML cell lines; experiment: MTT cell viability, short versus full length peptide; assay type: cell-based; conditions: 4×10^5 cells
Experimental: FIGS. 29B-29D are graphs depicting killing of AML cells by Survivin peptides. FIG. 29B depicts survivin peptide activity in HL-60 cells, measured by Trypan blue exclusion. FIGS. 29C and 29D depict killing, as measured using MTT, of HL-60 (FIG. 29C) or THP-1 (FIG. 29D) cells by full length Survivin peptide (SEQ ID NO:19), Survivin peptide K79-G83 (SEQ ID NO:20), or scrambled peptide (SEQ ID NO:25 and SEQ ID NO:28).
The activity of a shorter Survivin peptide was also tested in an AML cell line. A shorter cell permeable Survivin peptide was synthesized by fusing the third α-helix of the Antennapedia carrier sequence to the amino-terminus of the Survivin peptide sequence K79-G83 (SEQ ID NO:20). […] The scrambled control peptide ([…]; SEQ ID NO:28) was ineffective (FIGS. 29C, D). For these experiments a higher number of cells was used (4×10^5) to produce a 50% killing efficiency by full length survivin peptide.

[8] = molecular target: T4, survivin-Hsp90 (Homo sapiens, UniProt P07900, S63T); experiment: ELISA inhibition of recombinant survivin binding to Hsp90
T4 construct: GST-Hsp90 (amino acids 1-732); GST (N); made in house; host or cells: E. coli
From the text: as §1

[9] = test system: HFF, HGF, WS-1 normal cells; experiment: MTT colorimetric viability assay, normal cell types; assay type: cell-based, human; conditions: 24 hours
Experimental: (§2) FIGS. 22A and 22B compares the effect of P31 (SEQ ID NO:19) or P33 (SEQ ID NO:25) on apoptosis of tumor cell lines (FIG. 22A) and normal cell lines (FIG. 22B). The following tumor cell lines DU145 (prostate cancer, circles), PC3 (prostate cancer, triangles), or HeLa (cervical carcinoma, squares) were treated with the indicated increasing concentrations of P31 peptide (solid symbols) or control P33 peptide (open symbols), harvested after 24 hours, and analyzed for cell viability using an MTT colorimetric assay. For normal cell types (right panel), HFF (human foreskin fibroblasts, squares), HGF (human fibroblasts, triangles) or WS-1 (human epithelial cells, circles) were treated with P31 (solid symbols) or control scrambled peptide P33, harvested after 24 hours and analyzed for overall cell viability by MTT colorimetric assay. All cell lines were from ATCC.

[10] = test system: PC3 cells; experiment: Immunoblotting of Hsp90 client proteins; assay type: cell-based; conditions: 75 and 150 μM, 8 hours
Experimental: Survivin affects the stability and function of Hsp90 client proteins in tumor cells. PC3 cells were untreated or exposed to 75 and 150 μM concentrations of the survivin peptide (SEQ ID NO:19) (or control scrambled peptide; SEQ ID NO:25) for 8 hours and processed for immunoblotting against the Hsp90 client proteins survivin, AKT, and CDK-6. […] Conversely, the levels of Hsp90, Hsp70, and PCNA were not affected (FIG. 26A).

[11] = test system: HeLa cells; experiment: Stability of Hsp90 client proteins and caspase-3 proform, Western blot; assay type: cell-based, Human; conditions: increasing concentrations, 24 hours
Experimental: To determine whether intracellular loading of the Survivin cell permeable peptide reproduced the effect of mAb 8E2 that disrupts the Survivin-Hsp90 interaction in destabilizing Survivin levels in vivo (FIG. 8), HeLa cells were loaded with the indicated increasing concentrations of cell permeable control (SEQ ID NO:25) or Survivin (SEQ ID NO:19) cell permeable peptide, harvested after 24 hours, and analyzed for stability of Hsp90 client proteins, Survivin and Akt. Polyclonal antibody to Akt was obtained from Cell Signaling Technology (Cat. No. 9272).

[12] = test system: HeLa cells; experiment: Annexin V labeling and propidium iodide multiparametric flow cytometry; assay type: cell-based, Human; conditions: increasing concentrations, eight hour incubation, 37° C.
Experimental: HeLa cell cultures were treated with the indicated increasing concentrations of P31 (Survivin) or P33 (Control; SEQ ID NO:25) peptides, harvested after an eight hour incubation at 37° C., and analyzed for multiparametric flow cytometry of Annexin V labeling (X-axis, a marker of apoptosis) and propidium iodide staining (Y-axis, a marker of cell death).

[13] = test system: HL-60 cells; experiment: Cell killing by trypan blue exclusion; assay type: cell-based
Experimental: The expression and function of the survivin-Hsp90 pathway in acute myelogenous leukemia (AML) cell lines was analyzed. Survivin was abundantly expressed in four AML cell lines, U937, K-562, THP-1 and HL-60, by Western blotting (FIG. 29A).

[14] = test system: DU145, PC3, HeLa tumor cell lines; experiment: MTT colorimetric viability assay, tumor cell lines; assay type: cell-based; conditions: increasing concentrations, 24 hours
Experimental: as §2

Compound: CC(=O)O[C@H]1C(=O)[C@@]2(C)[C@H]([C@H](OC(=O)c3ccccc3)[C@]3(O)C[C@H](OC(=O)[C@H](O)[C@@H](NC(=O)c4ccccc4)c4ccccc4)C(C)=C1C3(C)C)[C@]1(OC(C)=O)CO[C@@H]1C[C@@H]2O [Taxol, paclitaxel]
- loss of cell viability by hypodiploid DNA content ([1]; 10 μM): does not result in significant loss of cell viability

Compound: COC(=O)C[C@H](NC(=O)[C@H](C)NC(=O)[C@@H](NC(=O)OCc1ccccc1)C(C)C)C(=O)CF [ZVAD-fink, Z-Val-Ala-Asp (OMe)-CH2F] (Cbz-Val-Ala-Asp(OMe)-CH2F)
- reversal of loss of XIAP expression caused by GA [2]: not

Compound: COc1cccc2c1C(=O)c1c(O)c3c(c(O)c1C2=O)C[C@@](O)(C(=O)CO)C[C@@H]3O[C@H]1C[C@H](N)[C@H](O)[C@H](C)O1 [adriamycin]
- loss of cell viability by hypodiploid DNA content ([1]; 300 nM): does not result in significant loss of cell viability

Compound: CC(=O)N[C@@H](CSC(=O)[C@]1([C@@H](O)C(C)C)NC(=O)[C@H](C)[C@@H]1O)C(=O)O [lactacystin]
- Survivin levels following lactacystin and GA treatment ([2]; 1 μM GA for 30 hours, 5 μM lactacystin): at or above the levels of untreated cells
- reversal of loss of XIAP expression caused by GA [2]: reversed

Compound: HKKHSSGAAFLSVKK (Synthetically generated peptide) [SEQ ID NO:23, C84A mutant 77-91 peptide]
- on-rates, wild type versus C84A peptide [3]: similar

Compound: KHSSGCAFLSVK [SEQ ID NO:3]
- inhibition of Hsp90-Survivin binding interactions [4]: especially effective inhibitor

Compound: RQIKIWFQNRRMKWKKKHSSG (Synthetically generated peptide) [SEQ ID NO:20]
- binding to recombinant Hsp90 in vitro [5]: comparably bound recombinant Hsp90
- cell viability (MTT), killing of AML cell lines [6]: efficiently killed all AML cell lines tested
- reduction of cell viability (MTT) [7]: considerably more active than the P31 peptide
- inhibition of binding of recombinant survivin to Hsp90 [8]: inhibited the binding of recombinant survivin to Hsp90 in a dose-dependent manner

Compound: RQIKIWFQNRRMKWKKSGKHS (Synthetically generated peptide) [SEQ ID NO:28, scrambled control peptide for K79-G83, reference compound]
- cell viability (MTT), killing of AML cell lines [6]: no effect
- reduction of cell viability (MTT) [7]: ineffective

Compound: RQIKIWFQNRRMKWKKSKLACFSHG (Synthetically generated peptide) [P33, reference compound]
- cell death in normal cell types (MTT) [9]: did not induce cell death in cancer or normal cell types
- Hsp90 client proteins (survivin, Akt, CDK-4, CDK-6) [10]: not
- levels of Survivin and Akt [11]: ineffective
- induction of apoptosis (Annexin V / propidium iodide) [12]: ineffective
- cell killing (trypan blue exclusion) [13]: ineffective
- cell population with hypodiploid DNA content (apoptotic) ([1]; peptides, comparison with chemotherapeutic drugs): not
- cell death in cancer cell lines (MTT) [14]: did not induce cell death in cancer or normal cell types
- cell viability (MTT), killing of AML cell lines [6]: no effect
